{"source": "ChEMBL document CHEMBL1159375", "about": "“Absolute configuration and complete assignment of 13C NMR data for new sesquiterpenes from Maytenus chiapensis” (2003)", "tested_on": "Leishmania tropica", "assay": "Growth inhibition of multidrug-resistant Leishmania tropica overexpressing P-glycoprotein-like transporter at 60 uM", "format": "functional", "set-up": "scale not given: the % may be the effect or the level left", "data": [{"compound": "CC(=O)OC[C@]12[C@H](OC(C)=O)C(=O)[C@@H]3[C@@H](OC(C)=O)[C@]1(O[C@@]3(C)COC(C)=O)[C@@](C)(O)[C@@H](OC(C)=O)[C@H](OC(C)=O)[C@@H]2OC(C)=O", "values": [{"measurement": "Activity", "value": 28, "unit": "%"}]}]}
